From PubChem BioAssay AID1919001 (Molecular Pharmacology Branch, DTP, NCI, 2023)
Several values for one entry are separate records, joined by “and”; a condition that tells them apart may be missing. Equal values may be shown once. Blank lines part the entries; values can stand above or below the compound they belong to.

Tested on: 699152-130-R-J1-PDC complex spheroid growth
Test: Anticancer human tumor 699152-130-R-J1-PDC patient-derived pancreatic carcinoma cell line growth inhibition [AhR]
Conditions: for viability, T/C: stronger effect = lower value
Summary of the method: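 Agents were dosed in half-log steps down from roughly clinical Cmax, or from 10 microM where Cmax was unknown, alone and with AhR antagonists. Read-out: percent test/control growth of tumor spheroids containing HUVEC and MSC stromal cells.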

[1] = curve of first compound, second compound 0.1 µM
[2] = curve of first compound, second compound 0.316 µM
[3] = curve of first compound, second compound 1 µM
[4] = curve of first compound, second compound 3.16 µM
[5] = curve of first compound, second compound 10 µM
[6] = second compound 0.1 µM, first compound 0.0316 µM
[7] = second compound 0.1 µM, first compound 0.1 µM
[8] = second compound 0.1 µM, first compound 0.316 µM
[9] = second compound 0.1 µM, first compound 1 µM
[10] = second compound 0.1 µM, first compound 3.16 µM
[11] = second compound 0.1 µM, first compound 10 µM
[12] = second compound 0.316 µM, first compound 0.0316 µM
[13] = second compound 0.316 µM, first compound 0.1 µM
[14] = second compound 0.316 µM, first compound 0.316 µM
[15] = second compound 0.316 µM, first compound 1 µM
[16] = second compound 0.316 µM, first compound 3.16 µM
[17] = second compound 0.316 µM, first compound 10 µM
[18] = second compound 1 µM, first compound 0.0316 µM
[19] = second compound 1 µM, first compound 0.1 µM
[20] = second compound 1 µM, first compound 0.316 µM
[21] = second compound 1 µM, first compound 1 µM
[22] = second compound 1 µM, first compound 3.16 µM
[23] = second compound 1 µM, first compound 10 µM
[24] = second compound 3.16 µM, first compound 0.0316 µM
[25] = second compound 3.16 µM, first compound 0.1 µM
[26] = second compound 3.16 µM, first compound 0.316 µM
[27] = second compound 3.16 µM, first compound 1 µM
[28] = second compound 3.16 µM, first compound 3.16 µM
[29] = second compound 3.16 µM, first compound 10 µM
[30] = second compound 10 µM, first compound 0.0316 µM
[31] = second compound 10 µM, first compound 0.1 µM
[32] = second compound 10 µM, first compound 0.316 µM
[33] = second compound 10 µM, first compound 1 µM
[34] = second compound 10 µM, first compound 3.16 µM
[35] = second compound 10 µM, first compound 10 µM
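Further: compound exposure lasted 7 days after spheroids had grown for 3 days.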

- IC50 [1]: 3.77 µM
- IC50 [2]: 4.81 µM
- IC50 [3]: 4.41 µM
- IC50 [4]: 4.24 µM
- IC50 [5]: 2.61 µM
Structure (SMILES): COc1ccc([C@@H](O)c2cc(-c3ncnc4cc(N5CCOCC5)ccc34)c(F)cc2Cl)nn1 + CC(CO)NC(=O)c1cc(-c2ccc(Cl)cc2)nn(-c2cnn(C)c2)c1=O
- viability, T/C [6]: 95.1%
- viability, T/C [7]: 105%
- viability, T/C [8]: 86.2%
- viability, T/C [9]: 78.6%
- viability, T/C [10]: 52.5%
- viability, T/C [11]: 33.1%
- viability, T/C [12]: 93.5%
- viability, T/C [13]: 90.2%
- viability, T/C [14]: 91.9%
- viability, T/C [15]: 74.3%
- viability, T/C [16]: 61.5%
- viability, T/C [17]: 32.1%
- viability, T/C [18]: 108%
- viability, T/C [19]: 100%
- viability, T/C [20]: 94.2%
- viability, T/C [21]: 74.1%
- viability, T/C [22]: 56.5%
- viability, T/C [23]: 35.9%
- viability, T/C [24]: 85%
- viability, T/C [25]: 105%
- viability, T/C [26]: 94.9%
- viability, T/C [27]: 70.6%
- viability, T/C [28]: 58.8%
- viability, T/C [29]: 34.8%
- viability, T/C [30]: 88.8%
- viability, T/C [31]: 87.9%
- viability, T/C [32]: 68.9%
- viability, T/C [33]: 63.4%
- viability, T/C [34]: 47.1%
- viability, T/C [35]: 38.1%

- IC50 (curve of compound): > 10 µM and 4.09 µM
Structure (SMILES): COc1cc(C2c3cc4c(cc3C(OC3OC5COC(C)OC5C(O)C3O)C3COC(=O)C23)OCO4)cc(OC)c1O (configuration not stated)
- viability, T/C (compound 0.0316 µM): 97.3% and 94.8% and 92.4%
- viability, T/C (compound 0.1 µM): 94.7% and 101% and 86.3%
- viability, T/C (compound 0.316 µM): 76.1% and 83.2% and 73.8%
- viability, T/C (compound 1 µM): 66.5% and 70.9% and 62.2%
- viability, T/C (compound 3.16 µM): 68.3% and 64.6% and 51.9%
- viability, T/C (compound 10 µM): 53.4% and 53.8% and 44.4%

- IC50 [1]: > 3 µM
- IC50 [2]: > 3 µM
- IC50 [3]: > 3 µM
- IC50 [4]: > 3 µM
- IC50 [5]: > 3 µM
Structure (SMILES): O=C(C=Cn1cnc(-c2cc(C(F)(F)F)cc(C(F)(F)F)c2)n1)NNc1cnccn1 + Cc1ccccc1N=Nc1ccc(NC(=O)c2ccnn2C)c(C)c1
- viability, T/C (second compound 0.1 µM, first compound 0.00949 µM): 92.5%
- viability, T/C (second compound 0.1 µM, first compound 0.03 µM): 84.5%
- viability, T/C (second compound 0.1 µM, first compound 0.0949 µM): 87.8%
- viability, T/C (second compound 0.1 µM, first compound 0.3 µM): 75.1%
- viability, T/C (second compound 0.1 µM, first compound 0.949 µM): 78.1%
- viability, T/C (second compound 0.1 µM, first compound 3 µM): 57.5%
- viability, T/C (second compound 0.316 µM, first compound 0.00949 µM): 85.5%
- viability, T/C (second compound 0.316 µM, first compound 0.03 µM): 82%
- viability, T/C (second compound 0.316 µM, first compound 0.0949 µM): 82.7%
- viability, T/C (second compound 0.316 µM, first compound 0.3 µM): 79.3%
- viability, T/C (second compound 0.316 µM, first compound 0.949 µM): 69.1%
- viability, T/C (second compound 0.316 µM, first compound 3 µM): 58%
- viability, T/C (second compound 1 µM, first compound 0.00949 µM): 92%
- viability, T/C (second compound 1 µM, first compound 0.03 µM): 90.8%
- viability, T/C (second compound 1 µM, first compound 0.0949 µM): 93.2%
- viability, T/C (second compound 1 µM, first compound 0.3 µM): 78.7%
- viability, T/C (second compound 1 µM, first compound 0.949 µM): 74.2%
- viability, T/C (second compound 1 µM, first compound 3 µM): 61.6%
- viability, T/C (second compound 3.16 µM, first compound 0.00949 µM): 97.6%
- viability, T/C (second compound 3.16 µM, first compound 0.03 µM): 115%
- viability, T/C (second compound 3.16 µM, first compound 0.0949 µM): 98.6%
- viability, T/C (second compound 3.16 µM, first compound 0.3 µM): 69.6%
- viability, T/C (second compound 3.16 µM, first compound 0.949 µM): 76.4%
- viability, T/C (second compound 3.16 µM, first compound 3 µM): 66.6%
- viability, T/C (second compound 10 µM, first compound 0.00949 µM): 120%
- viability, T/C (second compound 10 µM, first compound 0.03 µM): 112%
- viability, T/C (second compound 10 µM, first compound 0.0949 µM): 91.7%
- viability, T/C (second compound 10 µM, first compound 0.3 µM): 77.5%
- viability, T/C (second compound 10 µM, first compound 0.949 µM): 69.9%
- viability, T/C (second compound 10 µM, first compound 3 µM): 69.7%

- IC50 [1]: > 10 µM
- IC50 [2]: > 10 µM
- IC50 [3]: > 10 µM
- IC50 [4]: > 10 µM
- IC50 [5]: > 10 µM
Structure (SMILES): CC1(C)CCC(CN2CCN(c3ccc(C(=O)NS(=O)(=O)c4ccc(NCC5CCOCC5)c([N+](=O)[O-])c4)c(Oc4cnc5[nH]ccc5c4)c3)CC2)=C(c2ccc(Cl)cc2)C1 + CC(CO)NC(=O)c1cc(-c2ccc(Cl)cc2)nn(-c2cnn(C)c2)c1=O
- viability, T/C [6]: 102%
- viability, T/C [7]: 119%
- viability, T/C [8]: 95.8%
- viability, T/C [9]: 111%
- viability, T/C [10]: 89.1%
- viability, T/C [11]: 60.5%
- viability, T/C [12]: 104%
- viability, T/C [13]: 109%
- viability, T/C [14]: 96.5%
- viability, T/C [15]: 92.2%
- viability, T/C [16]: 87.1%
- viability, T/C [17]: 63.1%
- viability, T/C [18]: 96.2%
- viability, T/C [19]: 108%
- viability, T/C [20]: 105%
- viability, T/C [21]: 102%
- viability, T/C [22]: 95.4%
- viability, T/C [23]: 66%
- viability, T/C [24]: 98%
- viability, T/C [25]: 100%
- viability, T/C [26]: 102%
- viability, T/C [27]: 83%
- viability, T/C [28]: 96.9%
- viability, T/C [29]: 65%
- viability, T/C [30]: 90.8%
- viability, T/C [31]: 91.3%
- viability, T/C [32]: 97.5%
- viability, T/C [33]: 84.2%
- viability, T/C [34]: 84.4%
- viability, T/C [35]: 73.7%
